Test results reported in patent US12421252B2, “Spiro (isobenzofuranazetidine) compounds for the treatment of autoimmune disease” (Hoffmann-La Roche Inc., priority 2020, dated 2025).

Target: T1, hTLR9 (Homo sapiens, UniProt Q9NR96)
T1 sequence (Q9NR96 26-1032): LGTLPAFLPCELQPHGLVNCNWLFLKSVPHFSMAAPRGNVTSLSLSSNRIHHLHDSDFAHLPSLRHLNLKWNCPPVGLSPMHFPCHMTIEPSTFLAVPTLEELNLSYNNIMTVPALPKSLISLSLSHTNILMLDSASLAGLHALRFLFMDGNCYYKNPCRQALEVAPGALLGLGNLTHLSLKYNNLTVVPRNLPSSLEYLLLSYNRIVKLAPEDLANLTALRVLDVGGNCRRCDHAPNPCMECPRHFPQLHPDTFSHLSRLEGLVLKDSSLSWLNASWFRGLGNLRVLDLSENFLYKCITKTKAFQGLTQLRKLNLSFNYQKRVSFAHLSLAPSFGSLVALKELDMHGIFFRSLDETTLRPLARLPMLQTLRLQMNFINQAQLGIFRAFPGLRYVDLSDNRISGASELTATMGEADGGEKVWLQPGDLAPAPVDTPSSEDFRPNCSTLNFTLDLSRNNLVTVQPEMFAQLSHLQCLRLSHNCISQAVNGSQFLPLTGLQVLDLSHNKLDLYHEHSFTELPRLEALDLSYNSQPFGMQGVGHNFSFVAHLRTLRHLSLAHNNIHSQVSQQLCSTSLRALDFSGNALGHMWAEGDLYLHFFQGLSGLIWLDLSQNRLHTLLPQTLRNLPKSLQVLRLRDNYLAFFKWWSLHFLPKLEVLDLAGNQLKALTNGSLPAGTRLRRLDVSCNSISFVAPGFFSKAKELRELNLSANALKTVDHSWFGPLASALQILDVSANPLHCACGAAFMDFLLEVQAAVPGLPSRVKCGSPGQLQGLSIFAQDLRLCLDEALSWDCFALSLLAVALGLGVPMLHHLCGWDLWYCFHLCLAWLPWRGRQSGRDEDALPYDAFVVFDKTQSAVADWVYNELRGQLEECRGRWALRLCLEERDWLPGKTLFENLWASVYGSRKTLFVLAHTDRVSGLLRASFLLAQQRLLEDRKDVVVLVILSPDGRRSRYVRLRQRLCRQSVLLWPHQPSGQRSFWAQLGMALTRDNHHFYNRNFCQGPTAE
Test: HEK293-Blue-hTLR-9 cells assay
Format: cell-based
Details: HEK293-Blue-hTLR9 cells, ODN2006 stimulation, 20 hrs, SEAP reporter; read-out: HEK/hTLR9 IC50
Source text: HEK293-Blue-hTLR-9 cells assay: A stable HEK293-Blue-hTLR-9 cell line was purchased from InvivoGen (Cat. #: hkb-htlr9, San Diego, California, USA). These cells were originally designed for studying the stimulation of human TLR9 by monitoring the activation of NF-κB. A SEAP (secreted embryonic alkaline phosphatase) reporter gene was placed under the control of the IFN-β minimal promoter fused to five NF-κB and AP-1-binding sites. The SEAP was induced by activating NF-κB and AP-1 via stimulating HEK-Blue hTLR9 cells with TLR9 ligands. Therefore the reporter expression was declined by TLR9 antagonist under the stimulation of a ligand, such as ODN2006 (Cat. #: tlrl-2006-1, Invivogen, San Diego, California, USA), for incubation of 20 hrs. The cell culture supernatant SEAP reporter activity was determined using QUANTI-Blue™ kit (Cat. #: rep-qb1, Invivogen, San Diego, California, USA) at a wavelength of 640 nm, a detection medium that turns purple or blue in the presence of alkaline phosphatase.
HEK293-Blue-hTLR9 cells were incubated at a density of 250,000˜450,000 cells/mL in a volume of 170 μL in a 96-well plate in Dulbecco's Modified Eagle's medium (DMEM) containing 4.5 g/L glucose, 50 U/mL penicillin, […], 2 mM L-glutamine, 10% (v/v) heat-inactivated fetal bovine serum with addition of 20 μL test compound in a serial dilution in the presence of final DMSO at 1% and 10 μL of 20 uM ODN2006 in above DMEM, perform incubation under 37° C. in a CO2 incubator for 20 hrs. Then 20 μL of the supernatant from each well was incubated with 180 μL Quanti-blue substrate solution at 37° C. for 2 h and the absorbance was read at 620-655 nm using a spectrophotometer. The signaling pathway that TLR9 activation leads to downstream NF-κB activation has been widely accepted, and therefore similar reporter assay was modified for evaluating TLR9 antagonist.

IC50 [nM] | Structure (SMILES)
70 | C[C@@H]1CN(c2ccc(C#N)n3nccc23)C[C@H](CN2CC3(C2)OCc2cc(N4CC(C)(N)C4)ncc23)O1 [Example 25, 4-[(2S,6R)-2-[[6-(3-amino-3-methyl-azetidin-1-yl)spiro[1H-furo[3,4-c]pyridine-3,3′-azetidine]-1′-yl]methyl]-6-methyl-morpholin-4-yl]pyrazolo[1,5-a]pyridine-7-carbonitrile]
131 | C[C@@H]1CN(c2ccc(C#N)n3ncc(F)c23)C[C@H](CN2CC3(C2)OCc2cc(N4CC(C)(N)C4)ccc23)O1 [Example 1, 4-[(2S,6R)-2-[[6-(3-amino-3-methyl-azetidin-1-yl)spiro[1H-isobenzofuran-3,3′-azetidine]-1′-yl]methyl]-6-methyl-morpholin-4-yl]-3-fluoro-pyrazolo[1,5-a]pyridine-7-carbonitrile]
227 | C[C@@H]1CN(c2ccc(C#N)n3ncc(F)c23)C[C@H](CN2CC3(C2)OCc2cc(N4CC(C)(N)C4)cnc23)O1 [Example 33, 4-[(2S,6R)-2-[[3-(3-amino-3-methyl-azetidin-1-yl)spiro[5H-furo[3,4-b]pyridine-7,3′-azetidine]-1′-yl]methyl]-6-methyl-morpholin-4-yl]-3-fluoro-pyrazolo[1,5-a]pyridine-7-carbonitrile]
57 | C[C@@H]1CN(c2ccc(C#N)n3ncc(F)c23)C[C@H](CN2CC3(C2)OCc2cc(N4CC5(CN(C)C5)C4)cnc23)O1 [Example 22, 3-fluoro-4-[(2R,6S)-2-methyl-6-[[3-(6-methyl-2,6-diazaspiro[3.3]heptan-2-yl)spiro[5H-furo[3,4-b]pyridine-7,3′-azetidine]-1′-yl]methyl]morpholin-4-yl]pyrazolo[1,5-a]pyridine-7-carbonitrile]
80 | C[C@@H]1CN(c2ccc(C#N)n3nccc23)C[C@H](CN2CC3(C2)OCc2cc(N4CC(C)(N)C4)cnc23)O1 [Example 26, 4-[(2S,6R)-2-[[3-(3-amino-3-methyl-azetidin-1-yl)spiro[5H-furo[3,4-b]pyridine-7,3′-azetidine]-1′-yl]methyl]-6-methyl-morpholin-4-yl]pyrazolo[1,5-a]pyridine-7-carbonitrile]
32 | [2H]c1ccc2c(N3C[C@H](CN4CC5(C4)OCc4cc(N6CCNCC6)ccc45)O[C@H](C)C3)ccc(C#N)c2n1 [Example 18, 2-deuterio-5-[(2R,6S)-2-methyl-6-[(6-piperazin-1-ylspiro[1H-isobenzofuran-3,3′-azetidine]-1′-yl)methyl]morpholin-4-yl]quinoline-8-carbonitrile]
45 | C[C@@H]1CN(c2ccc(C#N)n3ncc(F)c23)C[C@H](CN2CC3(C2)OCc2cc(N4CC5(CN(C)C5)C4)ccc23)O1 [Example 2, 3-fluoro-4-[(2R,6S)-2-methyl-6-[[6-(6-methyl-2,6-diazaspiro[3.3]heptan-2-yl)spiro[1H-isobenzofuran-3,3′-azetidine]-1′-yl]methyl]morpholin-4-yl]pyrazolo[1,5-a]pyridine-7-carbonitrile]
68 | C[C@@H]1CN(c2cc(=O)n(C)c3ncccc23)C[C@H](CN2CC3(C2)OCc2cc(N4CC(N)C4)ccc23)O1 [Example 13, 4-[(2S,6R)-2-[[6-(3-aminoazetidin-1-yl)spiro[1H-isobenzofuran-3,3′-azetidine]-1′-yl]methyl]-6-methyl-morpholin-4-yl]-1-methyl-1,8-naphthyridin-2-one]
47 | C[C@@H]1CN(c2ccc(C#N)n3ncc(F)c23)C[C@H](CN2CC3(C2)OCc2cc(N[C@H]4CNC[C@H]4F)ccc23)O1 [Example 3, 3-fluoro-4-[(2S,6R)-2-[[6-[[(3S,4R)-4-fluoropyrrolidin-3-yl]amino]spiro[1H-isobenzofuran-3,3′-azetidine]-1′-yl]methyl]-6-methyl-morpholin-4-yl]pyrazolo[1,5-a]pyridine-7-carbonitrile]
32 | [2H]c1ccc2c(N3C[C@H](CN4CC5(C4)OCc4cc(N6C[C@@H](N)[C@H](OC)C6)ccc45)O[C@H](C)C3)ccc(C#N)c2n1 [Example 16, 5-[(2S,6R)-2-[[6-[(3R,4R)-3-amino-4-methoxy-pyrrolidin-1-yl]spiro[1H-isobenzofuran-3,3′-azetidine]-1′-yl]methyl]-6-methyl-morpholin-4-yl]-2-deuterio-quinoline-8-carbonitrile]
103 | C[C@@H]1CN(c2ccc(C#N)n3ncc(F)c23)C[C@H](CN2CC3(C2)OCc2cc(N4CC5(CNC5)C4)ccc23)O1 [Example 12, 4-[(2S,6R)-2-[[6-(2,6-diazaspiro[3.3]heptan-2-yl)spiro[1H-isobenzofuran-3,3′-azetidine]-1′-yl]methyl]-6-methyl-morpholin-4-yl]-3-fluoro-pyrazolo[1,5-a]pyridine-7-carbonitrile]
36 | C[C@@H]1CN(c2ccc(C#N)n3nccc23)C[C@H](CN2CC3(C2)OCc2cc(N4CC(N)C4)ccc23)O1 [Example 19, 4-[(2S,6R)-2-[[6-(3-aminoazetidin-1-yl)spiro[1H-isobenzofuran-3,3′-azetidine]-1′-yl]methyl]-6-methyl-morpholin-4-yl]pyrazolo[1,5-a]pyridine-7-carbonitrile]
94 | C[C@@H]1CN(c2ccc(C#N)n3ncc(F)c23)C[C@H](CN2CC3(C2)OCc2cc(N4CC[C@](C)(N)C4)ccc23)O1 [Example 5, 4-[(2S,6R)-2-[[6-[(3S)-3-amino-3-methyl-pyrrolidin-1-yl]spiro[1H-isobenzofuran-3,3′-azetidine]-1′-yl]methyl]-6-methyl-morpholin-4-yl]-3-fluoro-pyrazolo[1,5-a]pyridine-7-carbonitrile]
79 | [2H]c1ccc2c(N3C[C@H](CN4CC5(C4)OCc4cc(N6C[C@@H](N)[C@H](OC)C6)cnc45)O[C@H](C)C3)ccc(C#N)c2n1 [Example 31, 5-[(2S,6R)-2-[[3-[(3R,4R)-3-amino-4-methoxy-pyrrolidin-1-yl]spiro[5H-furo[3,4-b]pyridine-7,3′-azetidine]-1′-yl]methyl]-6-methyl-morpholin-4-yl]-2-deuterio-quinoline-8-carbonitrile]
96 | C[C@@H]1CN(c2ccc(C#N)n3ncc(F)c23)C[C@H](CN2CC3(C2)OCc2cc(N4CC5(CNCCO5)C4)ccc23)O1 [Example 4, 3-fluoro-4-[(2R,6S)-2-methyl-6-[[6-(5-oxa-2,8-diazaspiro[3.5]nonan-2-yl)spiro[1H-isobenzofuran-3,3′-azetidine]-1′-yl]methyl]morpholin-4-yl]pyrazolo[1,5-a]pyridine-7-carbonitrile]
244 | [2H]c1ccc2c(N3C[C@H](CN4CC5(C4)OCc4cc(N6CC(N)C6)ncc45)O[C@H](C)C3)ccc(C#N)c2n1 [Example 32, 5-[(2S,6R)-2-[[6-(3-aminoazetidin-1-yl)spiro[1H-furo[3,4-c]pyridine-3,3′-azetidine]-1′-yl]methyl]-6-methyl-morpholin-4-yl]-2-deuterio-quinoline-8-carbonitrile]
84 | C[C@@H]1CN(c2ccc(C#N)n3ncc(F)c23)C[C@H](CN2CC3(C2)OCc2cc(N4CC(N)C4)ccc23)O1 [Example 9, 4-[(2S,6R)-2-[[6-(3-aminoazetidin-1-yl)spiro[1H-isobenzofuran-3,3′-azetidine]-1′-yl]methyl]-6-methyl-morpholin-4-yl]-3-fluoro-pyrazolo[1,5-a]pyridine-7-carbonitrile]
